Among the data in the SangsterLogP compilation are logP values, retold here.

The nature of this series: method code SF-HPLC, from DOI: 10.1002/jps.2600840914, PMID: 8537890.
Consider `Cc1c(-c2ccccc2)ssc1=S`, for which the logP (as a rule, the decadic logarithm of the partition coefficient of the neutral form, usually between octanol and water) amounted to 3.95.

With `Cc1ssc(=S)c1-c1ccccc1`, the logP came to 3.17. With `CCc1ssc(=S)c1C`, the logP came out at 2.95. The molecule `CCc1cssc1=S` yielded a logP of 2.67.

`CCCc1cc(=S)ss1` gave a lipophilicity (logP) of 2.83.

In the case of `CCc1ssc(=S)c1CC`, the log partition coefficient (logP) turned out to be 3.51.

`Cc1ccc(-c2cc(=S)ss2)cc1` displayed a log partition coefficient (logP) of 4.26. In turn, `CCc1cc(=S)ss1` had a logP of 2.31. As to `COc1ccc(-c2cc(=S)ss2)cc1`, the lipophilicity (logP) is 3.82.

Molecule `S=c1cc(-c2ccccc2)ss1` displayed a logP of 3.67. Under `CCCc1ssc(=S)c1CC` stands 3.76; under `S=c1cc(Cc2ccccc2)ss1`, 3.43; under `S=c1ssc2ccccc12`, 3.57. The molecule `Cc1cssc1=O` yielded a log partition coefficient (logP) of 1.33. The result for `S=c1sscc1-c1ccccc1` reads 3.2; that for `Cc1cc(=S)ss1`, 1.87; that for `CCc1c(C)ssc1=S`, 2.94. For `Cc1cssc1=S`, the lipophilicity (logP) was 2.18. For `CCCCCc1cssc1=S`, the logP is 4.06. Under `Cc1ssc(=O)c1C` stands 1.73; under `CCc1ssc(=S)c1-c1ccccc1`, 3.52. The molecule `S=c1ccss1` gave a log partition coefficient (logP) of 1.58. With `Cc1ccc(-c2cssc2=S)cc1`, the lipophilicity (logP) worked out at 3.73.

In turn, `Cc1ssc(=S)c1C` gave a log partition coefficient (logP) of 2.45. For the molecule `Cc1cc(=O)ss1`, the log partition coefficient (logP) worked out at 1.26. Turning to `S=c1ssc2c1CCCCCC2`, the logP was 3.75.

`S=c1ssc2c1CCC2`: the lipophilicity (logP) stood at 2.53. The result for `S=c1ssc2c1CCCCC2` reads 3.27; that for `CCCCc1cssc1=S`, 3.7; that for `Cc1ssc(=S)c1Cc1ccccc1`, 3.78. The result for `CCCc1c(C)ssc1=S` reads 3.39; that for `CCCc1cssc1=O`, 2.38. Take `CCCc1cc(=O)ss1`: the logP is 2.24. This logP and that of the molecule before are within 0.2 log units of each other. In turn, `CCc1cc(=O)ss1` showed a lipophilicity (logP) of 1.69. As to `CCCc1cssc1=S`, the logP was found to be 3.18. The molecule `COc1ccc(-c2ssc(=S)c2C)cc1` returned a lipophilicity (logP) of 4.1. Turning to `CCCc1ssc(=S)c1C`, the logP worked out at 3.42.
